Earlier results as cited in US20190365934A1, “METHODS FOR IN VIVO MONITORING OF DO[…] AND EFFICACY OF TREATMENT AGENTS THEREFOR” (LIKEMINDS, INC., priority 2017, published 2019).

Settings: background statement on FDA approved SPECT tracer

COC(=O)[C@H]1[C@@H](c2ccc([123I])cc2)C[C@@H]2CC[C@H]1N2CCCF [[^123I]-FP-CIT, [^123I]-2β-carbomethoxy-3β-(4-iodophenyl)-N-(3-fluoropropyl) nortropane]
stable post-injection: 4 h
